In ChEMBL document CHEMBL5380810, “Scaffold Hybrid of the Natural Product Tanshinone I with Piperidine for the Discovery of a Potent NLRP3 Inflammasome Inhibitor” (J Med Chem, 2023):
Converted amounts (≈) assume the structure as drawn. The source made the active and inactive calls. The calls are words filed in the database; no cut-off is given here.

Tests used:
Peritoneal macrophage [1] = assay: Antiinflammatory activity against LPS-stimulated mouse peritoneal macrophage assessed as IL-1beta level at 2 uM treated for 3 hrs followed by ATP addition measured after 30 mins by ELISA method relative to control; format: functional; settings: time 3.5 hrs
Peritoneal macrophage [2] = assay: Antiinflammatory activity against LPS-stimulated mouse peritoneal macrophage assessed as IL-6 level at 2 uM treated for 3 hrs followed by ATP addition measured after 30 mins by ELISA method; format: functional, cell-based; settings: time 3.5 hrs
Peritoneal macrophage [3] = assay: Antiinflammatory activity against LPS-stimulated mouse peritoneal macrophage assessed as TNF-alpha level at 2 uM treated for 3 hrs followed by ATP addition measured after 30 mins by ELISA method relative to control; format: functional; settings: time 3.5 hrs
Peritoneal macrophage [4] = assay: Cytotoxicity against mouse peritoneal macrophages at 4 uM incubated for 3.5 hrs by MTT assay; format: toxicity, cell-based
[5] = Aqueous solubility of compound incubated for 24 hrs by HPLC analysis; format: physicochemical; settings: buffer
Peritoneal macrophage [6] = assay: Antiinflammatory activity against LPS-stimulated mouse peritoneal macrophage assessed as IL-6 level at 2 uM treated for 3 hrs followed by ATP addition measured after 30 mins by ELISA method relative to control; format: functional; settings: time 3.5 hrs
Peritoneal macrophage [7] = assay: Antiinflammatory activity against LPS-stimulated mouse peritoneal macrophage assessed as TNF-alpha level at 2 uM treated for 3 hrs followed by ATP addition measured after 30 mins by ELISA method; format: functional, cell-based; settings: time 3.5 hrs
[8] = Metabolic stability in human liver microsomes assessed as half life at 20 uM measured upto 120 mins in presence of NADPH by LC-MS/MS analysis; format: ADME, Microsome
Peritoneal macrophage [9] = assay: Antiinflammatory activity against LPS-stimulated mouse peritoneal macrophage assessed as inhibition of IL-1beta secretion treated for 3 hrs followed by ATP addition measured after 30 mins by ELISA method; format: functional, cell-based
[10] = Metabolic stability in mouse liver microsomes assessed as half life at 20 uM measured upto 120 mins in presence of NADPH by LC-MS/MS analysis; format: ADME, Microsome
[11] = Metabolic stability in mouse liver microsomes assessed as intrinsic clearance at 20 uM measured upto 120 mins in presence of NADPH by LC-MS/MS analysis; format: ADME, Microsome; settings: read-out: CLH
[12] = Metabolic stability in human liver microsomes assessed as intrinsic clearance at 20 uM measured upto 120 mins in presence of NADPH by LC-MS/MS analysis; format: ADME, Microsome; settings: read-out: CLH

| solubility [5] | half-life at 20 µM [8] | IC50 (Peritoneal macrophage [9]) | half-life at 20 µM [10] | microsomal CLint at 20 µM [11] | microsomal CLint at 20 µM [12] | SMILES | Activity (Peritoneal macrophage [1]) | Activity (Peritoneal macrophage [2]) | Activity (Peritoneal macrophage [3]) | Activity (Peritoneal macrophage [4]) | Activity (Peritoneal macrophage [6]) | Activity (Peritoneal macrophage [7]) |
| --- | --- | --- | --- | --- | --- | --- | --- | --- | --- | --- | --- | --- |
| – | – | – | – | – | – | Cc1cccc2c3c(ccc12)-c1oc2c(c1C(=O)C3=O)CCN(CCCN1CC[C@@H](O)C1)C2 | 92% | inactive | 33% | Non-Toxic | – | – |
| 11.89 µg/mL | – | – | – | – | – | Cc1cccc2c3c(ccc12)-c1oc2c(c1C(=O)C3=O)CCN(CCCN1CCOCC1)C2.Cl | 91% | – | 24% | Non-Toxic | 12% | – |
| – | – | – | – | – | – | Cc1cccc2c3c(ccc12)-c1oc2c(c1C(=O)C3=O)CCN(CCN1CCN(C)CC1)C2 | 61% | inactive | 19% | Non-Toxic | – | – |
| – | – | – | – | – | – | CCCCN1CCc2c(oc3c2C(=O)C(=O)c2c-3ccc3c(C)cccc23)C1 | 38% | inactive | 14% | Non-Toxic | – | – |
| – | – | – | – | – | – | Cc1cccc2c3c(ccc12)-c1oc2c(c1C(=O)C3=O)CCN(CCN1CCCCC1)C2 | 41% | inactive | – | Non-Toxic | – | inactive |
| – | – | – | – | – | – | COC(=O)CCN1CCc2c(oc3c2C(=O)C(=O)c2c-3ccc3c(C)cccc23)C1 | 87% | – | 46% | Non-Toxic | 34% | – |
| – | – | – | – | – | – | Cc1cccc2c3c(ccc12)-c1oc2c(c1C(=O)C3=O)CCN(CCC(=O)N1CCOCC1)C2 | 92% | inactive | 10% | Non-Toxic | – | – |
| – | – | – | – | – | – | COC(=O)[C@H](Cc1ccccc1)N1CCc2c(oc3c2C(=O)C(=O)c2c-3ccc3c(C)cccc23)C1 | 23% | inactive | 24% | Non-Toxic | – | – |
| – | – | – | – | – | – | COC(=O)CCCN1CCc2c(oc3c2C(=O)C(=O)c2c-3ccc3c(C)cccc23)C1 | 67% | – | 43% | Non-Toxic | 32% | – |
| 0.45 µg/mL (≈ 1.07 µM) | 3.73 h | 65 nM | 6.08 h | 3.8 µL/min/mg | 6.2 µL/min/mg | Cc1cccc2c3c(ccc12)-c1oc2c(c1C(=O)C3=O)CCN([C@H](CO)CCCO)C2 | 99% | – | 41% | Non-Toxic | 10% | – |
| – | – | – | – | – | – | Cc1cccc2c3c(ccc12)-c1oc2c(c1C(=O)C3=O)CCN(CCS(C)(=O)=O)C2 | 90% | inactive | 46% | Non-Toxic | – | – |
| – | – | – | – | – | – | Cc1cccc2c3c(ccc12)-c1oc2c(c1C(=O)C3=O)CCN(CCN(C)C)C2 | 88% | – | 20% | Non-Toxic | 3% | – |
| – | – | – | – | – | – | Cc1cccc2c3c(ccc12)-c1oc2c(c1C(=O)C3=O)CCN(CCCN(C)C)C2 | 95% | – | 19% | Non-Toxic | 8% | – |
| – | – | – | – | – | – | Cc1cccc2c3c(ccc12)-c1oc2c(c1C(=O)C3=O)CCN(CC(=O)N(C)C)C2 | 71% | – | 52% | Non-Toxic | 11% | – |
| – | – | – | – | – | – | CNC(=O)[C@H](C)N1CCc2c(oc3c2C(=O)C(=O)c2c-3ccc3c(C)cccc23)C1 | 96% | inactive | 31% | Non-Toxic | – | – |
| – | – | – | – | – | – | Cc1cccc2c3c(ccc12)-c1oc2c(c1C(=O)C3=O)CCN(C)C2 | 40% | – | 16% | Non-Toxic | 18% | – |
| – | – | 273 nM | – | – | – | Cc1cccc2c3c(ccc12)-c1oc2c(c1C(=O)C3=O)CCN(CCN1CCOCC1)C2 | 99% | inactive | 26% | Non-Toxic | – | – |
| 0.34 µg/mL (≈ 0.941 µM) | 11.6 h | 114 nM | 3.03 h | 7.64 µL/min/mg | 2 µL/min/mg | Cc1cccc2c3c(ccc12)-c1oc2c(c1C(=O)C3=O)CCN(CCO)C2 | 96% | – | 40% | Non-Toxic | 7% | – |
| – | – | – | – | – | – | Cc1cccc2c3c(ccc12)-c1oc2c(c1C(=O)C3=O)CCN(CCCn1ccnc1)C2 | 95% | inactive | 17% | Non-Toxic | – | – |
| – | – | – | – | – | – | COC(=O)CN1CCc2c(oc3c2C(=O)C(=O)c2c-3ccc3c(C)cccc23)C1 | 70% | – | 31% | Non-Toxic | 6% | – |

| solubility [5] | half-life at 20 µM [8] | IC50 (Peritoneal macrophage [9]) | half-life at 20 µM [10] | microsomal CLint at 20 µM [11] | microsomal CLint at 20 µM [12] | SMILES | Activity (Peritoneal macrophage [1]) | Activity (Peritoneal macrophage [2]) | Activity (Peritoneal macrophage [3]) | Activity (Peritoneal macrophage [4]) | Activity (Peritoneal macrophage [6]) | Activity (Peritoneal macrophage [7]) |
| --- | --- | --- | --- | --- | --- | --- | --- | --- | --- | --- | --- | --- |
| – | – | – | – | – | – | Cc1cccc2c3c(ccc12)-c1oc2c(c1C(=O)C3=O)CCN([C@@H](C)CO)C2 | 49% | inactive | 40% | Non-Toxic | – | – |
| – | 0.0795 h | – | 0.352 h | 65.6 µL/min/mg | 290 µL/min/mg | Cc1coc2c1C(=O)C(=O)c1c-2ccc2c(C)cccc12 [TANSHINONE I] | 69% | inactive | 55% | Non-Toxic | – | – |
| 6.34 µg/mL | – | – | – | – | – | Cc1cccc2c3c(ccc12)-c1oc2c(c1C(=O)C3=O)CCN([C@H](CO)CCCO)C2.Cl | 96% | – | 16% | Non-Toxic | 6% | – |
| – | – | – | – | – | – | Cc1cccc2c3c(ccc12)-c1oc2c(c1C(=O)C3=O)CCN(CCN1CCCC1)C2 | 73% | inactive | – | Non-Toxic | – | inactive |
| – | – | – | – | – | – | Cc1cccc2c3c(ccc12)-c1oc2c(c1C(=O)C3=O)CCN([C@H](CO)Cc1ccccc1)C2 | 56% | – | 45% | Non-Toxic | 9% | – |
| – | – | – | – | – | – | CCN1CCc2c(oc3c2C(=O)C(=O)c2c-3ccc3c(C)cccc23)C1 | 67% | inactive | – | Non-Toxic | – | inactive |
| – | – | – | – | – | – | Cc1cccc2c3c(ccc12)-c1oc2c(c1C(=O)C3=O)CCN(CCn1ccnc1)C2 | 96% | inactive | 29% | Non-Toxic | – | – |
| – | – | – | – | – | – | Cc1cccc2c3c(ccc12)-c1oc2c(c1C(=O)C3=O)CCN(CCCN1CCC(N3CCOCC3)CC1)C2 | 88% | inactive | 40% | Non-Toxic | – | – |
| – | – | – | – | – | – | Cc1cccc2c3c(ccc12)-c1oc2c(c1C(=O)C3=O)CCN(CC(=O)N1CCN(C)CC1)C2 | 77% | inactive | 35% | Non-Toxic | – | – |
| – | – | – | – | – | – | Cc1cccc2c3c(ccc12)-c1oc2c(c1C(=O)C3=O)CCNC2 | 16% | – | 22% | Non-Toxic | 13% | – |
| – | – | 2920 nM | – | – | – | Cc1cccc2c3c(ccc12)-c1oc2c(c1C(=O)C3=O)CCN([C@@H](C)C(=O)N1CCOCC1)C2 | 98% | inactive | 52% | Non-Toxic | – | – |
| 2.45 µg/mL | – | – | – | – | – | Cc1cccc2c3c(ccc12)-c1oc2c(c1C(=O)C3=O)CCN(CCO)C2.Cl | 99% | – | 22% | Non-Toxic | – | – |
| – | – | – | – | – | – | Cc1cccc2c3c(ccc12)-c1oc2c(c1C(=O)C3=O)CCN(CCCN1CCCC1)C2 | 94% | – | 13% | Non-Toxic | 31% | – |
| – | – | – | – | – | – | COC(=O)CC[C@@H](C(=O)OC)N1CCc2c(oc3c2C(=O)C(=O)c2c-3ccc3c(C)cccc23)C1 | 65% | – | 58% | Non-Toxic | 41% | – |
| – | – | – | – | – | – | CNC(=O)CN1CCc2c(oc3c2C(=O)C(=O)c2c-3ccc3c(C)cccc23)C1 | 92% | – | 36% | Non-Toxic | 19% | – |
| – | – | – | – | – | – | COC(=O)[C@H](C)N1CCc2c(oc3c2C(=O)C(=O)c2c-3ccc3c(C)cccc23)C1 | 65% | inactive | 25% | Non-Toxic | – | – |
| – | – | 368 nM | – | – | – | Cc1cccc2c3c(ccc12)-c1oc2c(c1C(=O)C3=O)CCN(CC(=O)N1CCOCC1)C2 | 96% | – | 36% | Non-Toxic | 24% | – |
| – | – | – | – | – | – | CC(C)(O)c1coc(S(=O)(=O)NC(=O)Nc2c3c(cc4c2CCC4)CCC3)c1 | 98% | inactive | 12% | – | – | – |
| – | – | 383 nM | – | – | – | Cc1cccc2c3c(ccc12)-c1oc2c(c1C(=O)C3=O)CCN([C@@H](C)C(=O)N1CCN(C)CC1)C2 | 97% | inactive | 33% | Non-Toxic | – | – |
| – | – | – | – | – | – | Cc1cccc2c3c(ccc12)-c1oc2c(c1C(=O)C3=O)CCN(CCCN1CCN(C)CC1)C2 | 95% | inactive | 51% | Non-Toxic | – | – |
